Reference: US5668116A, “Anti-inflammatory compounds and compositions” (Anthropharm Pty. Limited, priority 1987, dated 1997)
Where “and” joins values, the source holds several entries; their conditions need not be identical. Equal values may be shown once.

Experiments:
[1] = tested on: human synovial fibroblasts (line derived from OA joints); assay: In vitro biosynthesis of hyaluronic acid by synovial fibroblasts; type: cell-based; conditions: for in vitro biosynthesis of hyaluronic acid (HA): FIG. 1, 2, 17
[2] = tested on: mature rabbit articular cartilage; conditions: 8 week intra-articular treatment
[3] = target: T1, human granulocyte elastase (HGE) (Homo sapiens, UniProt P08246); assay: Inhibition of human granulocyte elastase (HGE), SAAVNA substrate; type: biochemical
T1 construct: HGE prepared according to the method of Andrews et al; from tissue
T1 sequence (P08246 30-247 limits assumed): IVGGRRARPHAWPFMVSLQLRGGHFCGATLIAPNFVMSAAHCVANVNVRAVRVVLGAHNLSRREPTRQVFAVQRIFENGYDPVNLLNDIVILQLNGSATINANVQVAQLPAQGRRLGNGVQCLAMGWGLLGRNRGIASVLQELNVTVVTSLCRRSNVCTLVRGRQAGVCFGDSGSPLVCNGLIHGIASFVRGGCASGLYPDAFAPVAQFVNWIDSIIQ
Excerpt: (a) HGE prepared according to the method of Andrews et al (Chem. Biological Int. 47, 157, 1983) was used to degrade
the synthetic specific substrate for this enzyme-(succinyl-dialanyl-valyl nitroanalide (SAAVNA)).
In these experiments the inhibitory activity of DH40J, PPS as SP54® and mixtures of SP54® and ZnSO4 in various proportions against HGE using the same condition as in (a), except that a different enzyme preparation was used, were investigated. […] A variety of ratios of Zn^+ to SP54® were tested for their ability to inhibit the HGE.

[4] = tested on: articular cartilages implanted in rat air pouches; assay: Rat air pouch model, loss of proteoglycans from implanted articular cartilage; type: in vivo; conditions: 10 mg/kg/day into the air pouch for seven days, peptone inflammation; FIG. 12
Protocol: This model was originally described by Sin, M. Y., et al J. Path. 141, 23 (1984) and Sedgwick A. D. et al Ann. Rheum. Dis. 43, 418 (1984) and provides a convenient and reproducable method of evaluating the effects of drugs on cartilage metabolism in vivo. This model was used to investigate the influence of SP54® and DH40J when administered into the rat air pouch at 10 mg/kg on the loss of cartilage proteoglycans (PGs) induced by an inflammatory cell invasion of the pouch.
Air pouches were created on the dorsal surface of male 200 gm Wistar rats by the initial injection of 20 ml of sterile air. Re-injection every second day maintained cavity inflation. Articular cartilage (AC) aseptically harvested from the knee joints of 10 week old New Zealand White rabbits, was implanted into formed 7 day old rat air pouches. Drugs (10 mg/kg), diluted in saline, were administered daily into the air pouch beginning the day of cartilage implantation. Saline was administered to a control group. Inflammation of the air pouch was achieved by the injection of 10 ml of sterile 3% peptone into the pouch every second day, beginning the day of cartilage implantation. […] Cells in the APF were stained with crystal violet and a total cell count determined. […] Implanted AC (8-10 mgs) was digested by papain and PG content was determined by hexuronic acid and sulphated glycosaminoglycan (GAG) analysis. […]

[5] = in vitro; Arch. Int. Pharmacodyn. Ther. 282, 196-208 (1986); cited from earlier work
[6] = Table 7, different enzyme preparation, single inhibitor

Compound	in vitro biosynthesis of hyaluronic acid (HA) [1]	4M Gu HCl,PG Extractability ([2]; individual joints)	35S-PG Specific (activity) ([2]; individual joints)	Hexuronic Acid(UA) ([2]; individual joints, hydrocortisone 50 mg, pentosan polysulphate 5 mg)	4M Gu HCl,PG Extractability Mean ± SD ([2]; n = 4 joints) [%]	35S-PG Specific (activity) Mean ± SD ([2]; n = 4 joints) [DPM/ug UA]	Hexuronic Acid(UA) Mean ± SD ([2]; n = 4 joints) [ug/mg dry wt.]	IC50 (HGE inhibition) [3, 6] [µg/mL]	loss of proteoglycans (uronic acid) from implanted articular cartilage [4]	restoration of HA biosynthesis suppressed by hydrocortisone ([1]; hydrocortisone at 10^6 M (so in the source), drug at 0.25 ug/ml, FIG. 19, 21)	restoration of HA biosynthesis suppressed by hydrocortisone ([1]; hydrocortisone at 10^8 M (so in the source), drug 0.1-1.0 ug/ml, FIG. 20)	prevention of the effects of hydrocortisone on synovial fibroblast biosynthesis of HA ([1]; in vitro)	IC50 (HGE inhibition) ([3]; Table 6, 1 μg HGE/ml, 0.2 mM SAAVNA, pH 7.4, 37° C.) [µg/mL]	% DIFFERENCE from SP54 (IC50, HGE) ([3]; Table 7, single inhibitor) [%]	improving proteoglycan incorporation into the extracellular matrix [5]
C[C@]12CCC(=O)C=C1CC[C@@H]1[C@@H]2[C@@H](O)C[C@@]2(C)[C@H]1CC[C@]2(O)C(=O)CO [Cortisone, hydrocortisone]	progressively inhibited	53.2% and 57.6% and 56.8% and 51.5%	896.8 DPM/ug UA and 866.6 DPM/ug UA and 1061.4 DPM/ug UA and 854.2 DPM/ug UA	27.4 ug/mg dry wt. and 23.2 ug/mg dry wt. and 20.0 ug/mg dry wt. and 21.8 ug/mg dry wt.	54.7 ± 2.9	919.7 ± 96.1	23.1 ± 3.1	–	–	–	–	–	–	–	–
O=S(=O)([O-])[O-].[Zn+2] [ZnSO4, zinc sulphate]	–	–	–	–	–	–	–	10	–	–	–	–	–	–	–
pentosan polysulphate sodium salt [SP54]	stimulates the biosynthesis of hyaluronic acid (HA)	–	–	–	–	–	–	0.381	equally effective in preventing the loss of proteoglycans	almost, but not totally, restored to control value	fully restored synthesis to control values	could prevent the deleterious effects of hydrocortisone	0.249	0	active in vitro in improving proteoglycan incorporation into the extracellular matrix
